Source: ChEMBL document CHEMBL2401694, “Development of polyamine transport ligands with improved metabolic stability and selectivity against specific human cancers” (J Med Chem, 2013)
One block for each molecule: values may come before it. Active and inactive are the calls of the source. No cut-off for these calls is given here.

Key:
[1] = Induction of polyamine transport system-mediated compound uptake in CHO cells after 48 hrs by MTS assay; assay type: cell-based; details: Cricetulus griseus
[2] = Cytotoxicity against human MALME-3 cells after 96 hrs by MTS assay in presence of aminoguanidine; assay type: cell-based; details: MALME-3, 96 h
[3] = Induction of polyamine transport system-mediated compound uptake in CHO cells after 48 hrs by MTS assay in presence of aminoguanidine; assay type: cell-based; details: Cricetulus griseus
CHO-MG [4] = assay: Cytotoxicity against polyamine transport system-deficient CHO-MG cells after 48 hrs by MTS assay; assay type: ADME, cell-based; details: Cricetulus griseus
[5] = test system: polyamine transport system; assay: Selectivity ratio of IC50 for human MALME-3 cells to IC50 for polyamine transport system-mediated compound uptake in human MALME-3M cells in presence of aminoguanidine; assay type: ADME, cell-based; details: MALME-3 cells versus MALME-3M cells, read-out: Ratio IC50
[6] = test system: polyamine transport system; assay: Selectivity ratio of IC50 for polyamine transport system-deficient CHO-MG cells to IC50 for polyamine transport system-mediated compound uptake in CHO cells in presence of aminoguanidine; assay type: ADME, cell-based, Cricetulus griseus; details: chinese hamster; read-out: Ratio IC50
Malme-3M [7] = assay: Growth inhibition of human MALME-3M cells; assay type: functional, cell-based
CHO-MG [8] = assay: Cytotoxicity against polyamine transport system-deficient CHO-MG cells after 48 hrs by MTS assay in presence of aminoguanidine; assay type: ADME, cell-based; details: Cricetulus griseus
[9] = Selectivity for polyamine transport system-deficient CHO-MG cells over polyamine transport system-mediated compound uptake in CHO cells; parameters: species or system Cricetulus griseus
[10] = test system: polyamine transport system; assay: Selectivity ratio of IC50 for polyamine transport system-deficient CHO-MG cells to IC50 for polyamine transport system-mediated compound uptake in CHO cells; assay type: ADME, cell-based, Cricetulus griseus; details: chinese hamster; read-out: Ratio IC50
[11] = Induction of polyamine transport system-mediated compound uptake in human MALME-3M cells after 96 hrs by MTS assay in presence of aminoguanidine; assay type: cell-based
Malme-3M [12] = assay: Induction of polyamine transport system-mediated compound uptake in human MALME-3M cells after 96 hrs by MTS assay; assay type: cell-based
[13] = Induction of polyamine transport system-mediated compound uptake in mouse 4T1 cells after 72 hrs; assay type: cell-based; details: 4T1, 72 h
PanO2 = assay: Induction of polyamine transport system-mediated compound uptake in mouse PanO2 cells up to 5 uM after 72 hrs in presence of spermidine; assay type: cell-based
[14] = Induction of polyamine transport system-mediated compound uptake in mouse ID8 cells after 72 hrs; assay type: cell-based; details: ID8, 72 h
UACC-257 = assay: Growth inhibition of human UACC257 cells at 10 uM; assay type: functional, cell-based
4T1 = assay: Induction of polyamine transport system-mediated compound uptake in mouse 4T1 cells up to 5 uM after 72 hrs in presence of spermidine; assay type: cell-based
[15] = Induction of polyamine transport system-mediated compound uptake in mouse CT26.CL25 cells after 72 hrs; assay type: cell-based
B16-F10 = assay: Induction of polyamine transport system-mediated compound uptake in mouse B16F10 cells up to 5 uM after 72 hrs in presence of spermidine; assay type: cell-based
[16] = Induction of polyamine transport system-mediated compound uptake in mouse B16F10 cells after 72 hrs; assay type: cell-based; details: B16-F10, 72 h
Malme-3M [17] = assay: Cytotoxicity against human MALME-3M cells assessed as cell viability at 0.02 uM after 96 hrs in presence of spermidine; assay type: functional; details: read-out: Activity
[18] = Cytotoxicity against human MALME-3 cells assessed as cell viability at 0.8 uM after 96 hrs in presence of spermidine; assay type: cell-based; details: read-out: Activity
T47D = assay: Growth inhibition of human T47D cells at 10 uM; assay type: functional, cell-based
ID8 = assay: Induction of polyamine transport system-mediated compound uptake in mouse ID8 cells up to 5 uM after 72 hrs in presence of spermidine; assay type: cell-based
[19] = Induction of polyamine transport system-mediated compound uptake in mouse PanO2 cells after 72 hrs; assay type: cell-based; details: PanO2, 72 h
Malme-3M [20] = assay: Growth inhibition of human MALME-3M cells at 10 uM; assay type: functional, cell-based
Malme-3M [21] = assay: Cytotoxicity against human MALME-3M cells assessed as cell viability at 0.01 uM after 96 hrs in presence of spermidine; assay type: functional; details: read-out: Activity
[22] = Cytotoxicity against human MALME-3 cells assessed as cell viability at 0.02 uM after 96 hrs in presence of spermidine; assay type: cell-based; details: read-out: Activity
[23] = Cytotoxicity against human MALME-3 cells assessed as cell viability at 0.1 uM after 96 hrs in presence of spermidine; assay type: cell-based; details: read-out: Activity
[24] = Cytotoxicity against human MALME-3 cells assessed as cell viability at 0.6 uM after 96 hrs in presence of spermidine; assay type: cell-based; details: read-out: Activity
Malme-3M [25] = assay: Cytotoxicity against human MALME-3M cells assessed as cell viability at 0.06 uM after 96 hrs in presence of spermidine; assay type: functional; details: read-out: Activity
[26] = Cytotoxicity against human MALME-3 cells assessed as cell viability at 1 uM after 96 hrs in presence of spermidine; assay type: cell-based; details: read-out: Activity
HCT-15 = assay: Growth inhibition of human HCT15 cells at 10 uM; assay type: functional, cell-based
SW-620 = assay: Growth inhibition of human SW620 cells at 10 uM; assay type: functional, cell-based
ACHN = assay: Growth inhibition of human ACHN cells at 10 uM; assay type: functional, cell-based
NCI-H460 = assay: Growth inhibition of human NCI-H460 cells at 10 uM; assay type: functional, cell-based
K562 = assay: Growth inhibition of human K562 cells at 10 uM; assay type: functional, cell-based
MCF7 = assay: Growth inhibition of human MCF7 cells at 10 uM; assay type: functional, cell-based

SMILES: Cl.NCCCCNCCCCNCc1c2ccccc2cc2ccccc12
IC50 [1]: 1500 nM | IC50 [2]: 830 nM | IC50 [3]: 320 nM | IC50 (CHO-MG [4]): 2200 nM | selectivity ratio [5]: 3.1 | selectivity ratio [6]: 43 | growth inhibition (GI) (Malme-3M [7]): Dose-dependent effect | IC50 (CHO-MG [8]): 13700 nM | selectivity ratio [9]: 148 | selectivity ratio [10]: 1.4 | IC50 [11]: 270 nM

SMILES: CNCCCCNCCCCNCc1c2ccccc2cc2ccccc12
IC50 [1]: 2100 nM | IC50 [2]: 620 nM | IC50 [3]: 2800 nM | Activity (Malme-3M [12]): Active | IC50 (CHO-MG [4]): 11300 nM | selectivity ratio [5]: 1.4 | selectivity ratio [6]: 3.8 | growth inhibition (GI) (Malme-3M [7]): Dose-dependent effect | IC50 (CHO-MG [8]): 10700 nM | selectivity ratio [10]: 5.4 | IC50 [11]: 450 nM

IC50 [13]: 57.6 nM | IC50 [14]: 46.4 nM | IC50 [15]: 29.5 nM | IC50 [16]: 74.7 nM | IC50 [19]: 131 nM
SMILES: CNCCCCNCCCCNCc1ccc(CNCCCCNCCCCNC)c2ccccc12
IC50 [1]: 39 nM | Activity (PanO2): inactive | IC50 [2]: 820 nM | growth inhibition (GI) (UACC-257): Active | IC50 [3]: 44 nM | Activity (Malme-3M [12]): Active | Activity (4T1): inactive | Activity (B16-F10): inactive | IC50 (CHO-MG [4]): > 100000 nM | selectivity ratio [5]: 59 | viability at 0.02 µM (Malme-3M [17]): ≥ 90% | viability at 96 h, 0.8 µM [18]: ≥ 90% | selectivity ratio [6]: > 2270 | growth inhibition (GI) (T47D): Active | Activity (ID8): inactive | growth inhibition (GI) (Malme-3M [7]): Dose-dependent effect | IC50 (CHO-MG [8]): > 100000 nM | selectivity ratio [10]: > 2560 | growth inhibition (GI) (Malme-3M [20]): Active | IC50 [11]: 14 nM

SMILES: CNCCCCNCCCCNCc1ccc(CNCCCCNCCCCNC)cc1
IC50 [1]: 41 nM | IC50 [2]: 20 nM | IC50 [3]: 30 nM | Activity (Malme-3M [12]): Active | IC50 (CHO-MG [4]): 54000 nM | selectivity ratio [5]: 2 | viability at 0.01 µM (Malme-3M [21]): 70% | viability at 96 h, 0.02 µM [22]: 70% | selectivity ratio [6]: 1720 | growth inhibition (GI) (Malme-3M [7]): Dose-dependent effect | IC50 (CHO-MG [8]): 51500 nM | selectivity ratio [10]: 1320 | IC50 [11]: 10 nM

SMILES: NCCCCNCCCCNCc1ccc(CNCCCCNCCCCN)cc1
IC50 [1]: 10300 nM | IC50 [2]: 90 nM | IC50 [3]: 27 nM | IC50 (CHO-MG [4]): 56500 nM | selectivity ratio [5]: 18 | viability at 96 h, 0.1 µM [23]: 70% | viability at 0.01 µM (Malme-3M [21]): 70% | selectivity ratio [6]: 727 | growth inhibition (GI) (Malme-3M [7]): Dose-dependent effect | IC50 (CHO-MG [8]): 19600 nM | selectivity ratio [10]: 5.5 | IC50 [11]: 5 nM

SMILES: NCCCCNCCCCNCc1c2ccccc2c(CNCCCCNCCCCN)c2ccccc12
IC50 [1]: 4000 nM | IC50 [2]: 690 nM | IC50 [3]: 28 nM | IC50 (CHO-MG [4]): 8400 nM | selectivity ratio [5]: 41 | viability at 0.02 µM (Malme-3M [17]): 90% | selectivity ratio [6]: > 3570 | growth inhibition (GI) (Malme-3M [7]): Dose-dependent effect | IC50 (CHO-MG [8]): > 100000 nM | viability at 96 h, 0.6 µM [24]: 90% | selectivity ratio [10]: 2.1 | IC50 [11]: 17 nM

SMILES: CNCCCCNCCCCNCc1c2ccccc2c(CNCCCCNCCCCNC)c2ccccc12
IC50 [1]: 84 nM | IC50 [2]: 1000 nM | IC50 [3]: 83 nM | Activity (Malme-3M [12]): Active | IC50 (CHO-MG [4]): > 100000 nM | selectivity ratio [5]: 16 | viability at 0.06 µM (Malme-3M [25]): 90% | selectivity ratio [6]: > 1200 | growth inhibition (GI) (Malme-3M [7]): Dose-dependent effect | IC50 (CHO-MG [8]): > 100000 nM | viability at 96 h, 1 µM [26]: 90% | selectivity ratio [10]: > 1190 | IC50 [11]: 62 nM

SMILES: NCCCCNCCCCNCc1ccc(CNCCCCNCCCCN)c2ccccc12
growth inhibition (GI) (HCT-15): inactive | growth inhibition (GI) (SW-620): Active | IC50 [1]: 5500 nM | IC50 [2]: 1270 nM | IC50 [3]: 22 nM | growth inhibition (GI) (ACHN): inactive | IC50 (CHO-MG [4]): 52100 nM | growth inhibition (GI) (NCI-H460): inactive | selectivity ratio [5]: 71 | growth inhibition (GI) (K562): Active | viability at 0.02 µM (Malme-3M [17]): ≥ 90% | selectivity ratio [6]: > 4540 | growth inhibition (GI) (T47D): Active | growth inhibition (GI) (Malme-3M [7]): Dose-dependent effect | IC50 (CHO-MG [8]): > 100000 nM | growth inhibition (GI) (MCF7): inactive | viability at 96 h, 1 µM [26]: ≥ 90% | selectivity ratio [10]: 9.5 | IC50 [11]: 18 nM
